These results are taken from patent publication US12409189B2, “STAUFEN1 agents and associated methods” (University of Utah Research Foundation, priority 2016, dated 2025).

Format in all cases: cell-based, human
Data set [1] concerns Staufen1. Kind of data set: Western blot of Staufen1 in SH-SY5Y and ATXN2-Q22/58 knock-in cells. The note with it: for STAU1 levels, expression relative to actin: SH-SY5Y-ATXN2 [Q22/Q22] cells, ASO at the indicated dose, western blotting. On the procedure:
(§1) SH-SY5Y cells were cultured in standard DMEM with 10% FBS and 1X penicillin/streptomycin in 5% CO2. Transfection of STAU1 siRNA or STAU1 ASO was accomplished using Lipofectamine transfection reagent using standard conditions. Cells were harvested 3-5 days post transfection.
(§2) Protein extracts were prepared by suspending cell pellets in SDS-PAGE sample buffer (Laemmli sample buffer) followed by boiling for 5 min. Equal amount of the extracts were subjected to Western blot analysis to determine the steady-state levels of proteins using the indicated antibodies. Protein extracts were resolved by SDS-PAGE and transferred to Hybond P membranes (Amersham Bioscience Inc., USA). After blocking with 5% skim milk in 0.1% Tween 20/PBS, the membranes were incubated with primary antibodies in 5% skim milk in 0.1% Tween 20/PBS for 2 hrs at room temperature or overnight at 4° C. After several washes with 0.1% Tween 20/PBS, the membranes were incubated with the corresponding secondary antibodies conjugated with HRP in 5% skim milk in 0.1% Tween 20/PBS for 2 hrs at room temperature. Following three additional washes with 0.1% Tween 20/PBS, signals were detected by using the Immobilon Western Chemiluminescent HRP Substrate (Millipore Inc., USA; cat #WBKLSO100) according to the manufacturer's protocol. The antibodies used included ATXN2 mAb [(1:3000), BD Biosciences Inc.; cat #611378], rabbit anti-Staufen antibody (Novus biologicals Inc., NBP1-33202), SQSTM1/p62 antibody (Cell signaling, #5114), LC3B Antibody (Novus biologicals Inc., NB100-2220), mTOR antibody (Cell signaling, #2972), Phospho-mTOR (Ser2448) antibody (Cell signaling #2971), β-Actin mAb conjugated with HRP [(1:10,000), Sigma Inc.; cat #A3858]. Secondary antibodies were horse anti-mouse IgG-HRP antibody (Vector laboratories, PI-2000), and goat anti-rabbit IgG-HRP antibody (Vector laboratories, PI-1000).
(§3) For over-expression of recombinant proteins, SH-SY5Y cells were seeded on 100 mm or 6 well dishes and incubated overnight. The cells were then transfected with plasmid DNAs and harvested 48 hrs post-transfection and processed as two aliquots for protein and RNA analyses. For siRNA experiments, cells were transfected with siRNAs using lipofectamine 2000, and lymphoblastoid B cells (1×10^6) were electroporated with siRNAs using the Neon transfection system (Invitrogen Inc., USA) according to the manufacturer's protocol and seeded on 6 well plates.
(§4) Preparation of protein lysates and western blot analyses. […] Signals were detected by using the Immobilon Western Chemiluminescent HRP Substrate (Millipore Inc., USA; cat #WBKLSO100) according to the manufacturer's protocol. The intensity of proteins was determined by using the ImageJ software analyses system and the relative protein abundances were expressed as ratios to β-actin.

Data set [2] deals with p21 Waf1/Cip1. In words: Cycloheximide (CHX)-chase assay, p21 Waf1/Cip1 control, western blot. The conditions noted are these: 4 hr after CHX treatment (25 μg/ml), both normal and SCA2 fibroblasts. Here is the method:
(§5) To identify the underlying mechanism of ATXN2 polyQ expansion-mediated Staufen1 abundance, Staufen1 transcript levels were examined in normal and SCA2 fibroblasts. […] To test this, comparative protein stability for Staufen1 was measured by cycloheximide (CHX)-chase assay in normal and SCA2 fibroblasts. Relative Staufen1 levels were analyzed from harvested normal and SCA2 fibroblast extracts. (FIGS. 4B and 4C).
(§6) Preparation of protein lysates and western blot analyses. Cellular extracts were prepared by a single-step lysis method. The harvested cells were suspended in SDS-PAGE sample buffer [Laemmli sample buffer (Bio-Rad Inc.; cat #161-0737)] and then boiled for 5 min. Equal amounts of the extracts were used for western blot analyses. Cerebellar protein extracts were prepared by homogenization of mouse cerebella in extraction buffer [25 mM Tris-HCl pH 7.6, 300 mM NaCl, 0.5% Nonidet P-40, 2 mM EDTA, 2 mM MgCl2, 0.5 M urea and protease inhibitors (Sigma Inc.; cat #P-8340)] followed by centrifugation at 4° C. for 20 min at 14,000 RPM. […] Signals were detected by using the Immobilon Western Chemiluminescent HRP Substrate (Millipore Inc., USA; cat #WBKLSO100) according to the manufacturer's protocol. The intensity of proteins was determined by using the ImageJ software analyses system and the relative protein abundances were expressed as ratios to β-actin.
(Immunoblotting shows a protein as a band on a membrane.)

The subject of data set [3] is Staufen1. Kind of data set: Cycloheximide (CHX)-chase assay, Staufen1 protein stability, western blot. Here is the method:
as §5, §6

Data set [4] has as its system STAU1. In words: Sodium arsenite-induced stress, STAU1 immunoblotting in fibroblasts. From the text: Cell culture and Transfections. Four normal skin fibroblasts (ATXN2 with CAG22) and five SCA2 patient-derived skin FBs (ATXN2 with CAG repeats; 35, 35, 35, 42, and 45), were maintained in DMEM medium containing 10% fetal bovine serum. Two normal (ATXN2 with CAG22) and three SCA2 patient-derived (ATXN2 with expanded CAG repeats; 40, 46 and 52) Epstein-Barr virus (EBV)-immortalized LBCs were maintained in RPMI medium containing 15% fetal bovine serum. All subjects gave written consent and all procedures were approved by the Institutional Review Board at the University of Utah. The following primary human fibroblasts were obtained from the Coriell Cell Repositories (Camden, NJ, USA): ALS patient (TDP-43G298S mutation)(ND32947), Huntington disease (HD) patient (ND33392) and SCA3 (Machado-Joseph disease, MJD) patient (GM06153). TDP-43G298S, HD, SCA3, and SH-SY5Y cells were maintained in DMEM medium containing 10% fetal bovine serum.
Preparation of protein lysates and western blot analyses. Cellular extracts were prepared by a single-step lysis method. […] Signals were detected by using the Immobilon Western Chemiluminescent HRP Substrate (Millipore Inc., USA; cat #WBKLSO100) according to the manufacturer's protocol. The intensity of proteins was determined by using the ImageJ software analyses system and the relative protein abundances were expressed as ratios to β-actin.

Data set [5] relates to Staufen1. Kind of data set: Western blot of Staufen1 in normal and SCA2 LB cells and SCA2 fibroblasts after siRNA. The note with it: siRNA electroporation, 4 days.
Description: (§7) The siRNAs used in this study were: All Star Negative Control siRNA (Qiagen Inc., USA; Cat #1027280), siATXN2 [Hs_ATXN2_2, (Qiagen Inc., USA; Cat #SI00308196), human siSTAU1: 5′-CCUAUAACUACAACAUGAGdTdT-3′ (SEQ ID NO: 3) and mouse siStau1: 5′-CAACUGUACUACCUUUCCAdTdT-3′ (SEQ ID NO: 31). Staufen1 siRNA oligonucleotides were synthesized by Invitrogen Inc., USA. The oligonucleotides were deprotected and the complementary strands were annealed.
as §3, §4

In data set [6] the test system is PCP2 mRNA. In words: qPCR of PCP2 transcript in LB cells and SCA2 fibroblasts after siRNA. The conditions noted are these: Staufen1 siRNA.
Description: as §7, §3
(§8) RNA expression analyses by Quantitative RT-PCR. […] Quantitative RT-PCR was performed in QuantStudio 12K (Life Technologies, Inc.; USA) with the Power SYBR Green PCRMaster Mix (Applied Biosystems Inc.; USA). […] The threshold cycle for each sample was chosen from the linear range and converted to a starting quantity by interpolation from a standard curve run on the same plate for each set of primers. […]

Data set [7] relates to ATXN2 transcript. In words: qPCR of ATXN2 transcript in LB cells after Staufen1 silencing. The note with it: normal or SCA2-LB cells, Staufen1 siRNA.
Description: as §7, §3, §8

The subject of data set [8] is autophagic pathway proteins (mTOR, P-mTOR, p62, LC3-II). In words: Western blot of autophagic pathway proteins in SH-SY5Y and ATXN2-Q22/58 knock-in cells. The conditions noted are these: for autophagic pathway proteins: ATXN2-Q22/58 knock-in cells, RNAi transfection. On the procedure: as §1
as §2, with “The antibodies used included ATXN2 mAb [(1:3000), BD Biosciences Inc.; cat #611378], rabbit anti-Staufen antibody (Novus biologicals Inc., NBP1-33202), SQSTM1/p62 antibody (Cell signaling, #5114), LC3B Antibody (Novus biologicals Inc., NB100-2220), mTOR antibody (Cell signaling, #2972), Phospho-mTOR (Ser2448) antibody (Cell signaling #2971), β-Actin mAb conjugated with HRP [(1:10,000), Sigma Inc.; cat #A3858].” left out
as §3
Preparation of protein lysates and western blot analyses. Cellular extracts were prepared by a single-step lysis method. […] Equal amounts of the extracts were used for western blot analyses. […] Only supernatants were used for western blotting. Protein extracts were resolved by SDS-PAGE and transferred to Hybond P membranes (Amersham Bioscience Inc., USA). After blocking with 5% skim milk in 0.1% Tween 20/PBS, the membranes were processed for immunostaining using corresponding primary and secondary antibodies. Signals were detected by using the Immobilon Western Chemiluminescent HRP Substrate (Millipore Inc., USA; cat #WBKLSO100) according to the manufacturer's protocol. The intensity of proteins was determined by using the ImageJ software analyses system and the relative protein abundances were expressed as ratios to β-actin.

The subject of data set [9] is ATXN2. Kind of data set: Western blot of ATXN2 in ATXN2-Q22/58 KI cells after RNAi. Here is the method:
as §1
Protein extracts were prepared by suspending cell pellets in SDS-PAGE sample buffer (Laemmli sample buffer) followed by boiling for 5 min. Equal amount of the extracts were subjected to Western blot analysis to determine the steady-state levels of proteins using the indicated antibodies. Protein extracts were resolved by SDS-PAGE and transferred to Hybond P membranes (Amersham Bioscience Inc., USA). […] Following three additional washes with 0.1% Tween 20/PBS, signals were detected by using the Immobilon Western Chemiluminescent HRP Substrate (Millipore Inc., USA; cat #WBKLSO100) according to the manufacturer's protocol. […]
as §4

Where [10] appears, read: SH-SY5Y and ATXN2-Q22/58 knock-in cells, Baf dose-wise, 6 h, vs untreated.

“Also recorded” adds a separate entry of the source. d = 2'-deoxy (DNA); r = 2'-OH (RNA)

Regarding “5′-CTGGAAAGATAGTCCAGTTG-3′ (listed as DNA, chemistry not given here; listed as Homo sapiens) [STAU1 ASO-B, antisense oligonucleotide targeting Staufen1]”, the “STAU1 levels, expression relative to actin” value in data set [1] is on record as “reduced STAU1 levels”.

Take `C[C@@H]1C[C@@H]([C@H](O)CC2CC(=O)NC(=O)C2)C(=O)[C@@H](C)C1` [CHX, cycloheximide]: in [2], the “reduction of p21 Waf1/Cip1 levels” value was approximately 90%. Besides, the “Staufen1 protein expression levels” value in data set [3] (SCA2 fibroblasts, CHX treatment) is “relatively little decrease”. The Staufen1 levels result in data set [3] (normal fibroblasts, 4 hr after CHX treatment) is “reduced”.

For “5′-TCTCATGTTGTAGTTATAGG-3′ (listed as DNA, chemistry not given here; listed as Homo sapiens) [STAU1 ASO-A, antisense oligonucleotide targeting Staufen1]”, in [1], the “STAU1 levels, expression relative to actin” value is “reduced STAU1 levels”.

As for `O=[As]O` [sodium arsenite], the “STAU1 level in response to arsenite” value in data set [4] (HD and SCA3 patient fibroblasts, 1.0 mM, 0, 3 and 6 hr) is “early and exaggerated responses; also recorded: exaggerated increases in STAU1 levels”; in [4] (normal fibroblasts (implied), only visible after 6 hr treatment), “modest STAU1 increase”.

Regarding “5′-CCUAUAACUACAACAUGAGdTdT-3′ (sense CCUAUAACUACAACAUGAGTT; sugars from the 5' end r19 d2, backbone not given here) [siSTAU1, siRNA directed against human Staufen1, synthesized by Invitrogen]”, the “depletion of Staufen1” value in [5] (SCA2-LB (ATXN2-Q22/52) cells) was approximately 83%. The “silencing of staufen1” value in [5] (normal LB cells) was approximately 81%. In data set [6] (SCA2-LB (ATXN2-Q22/52) cells, qPCR), the “PCP2 mRNA level” value is listed as “restored PCP2 mRNA level to a level similar to that seen in normal LB cells treated with control siRNA”. For the same compound, in data set [6] (normal LB cells, vs control siRNA), the “PCP2 mRNA levels” value is given as “did not show significant alteration of PCP2 mRNA levels”. The ATXN2 transcript levels result in data set [7] is given as “does not show any effect on ATXN2 transcript levels”. In addition, the autophagic pathway proteins result in data set [8] (listed as STAU1 RNAi) was “restored autophagic pathway proteins”; in data set [8] (listed as STAU1 siRNA), “restoration of autophagic pathway proteins”. Besides, the ATXN2 steady-state levels result was “did not change ATXN2 levels” in data set [9] (listed as STAU1-RNAi) and “without affecting ATXN2 steady-state levels” in data set [9] (listed as STAU1 siRNA).

On to `CO/C1=C\C(C)=C\[C@@H](C)[C@@H](O)[C@@H](C)C/C(C)=C/C=C/[C@H](OC)[C@@H]([C@@H](C)[C@@H](O)[C@H](C)[C@@]2(O)C[C@@H](O)[C@H](C)[C@@H](C(C)C)O2)OC1=O` [Bafilomycin Al, bafilomycin Al, reference compound], for which the “Staufen1 levels / clearance” value in data set [1] (setting [10]) was “dose-wise increased levels; also recorded: lowers Staufen1 clearance”. Also, in [8] (ATXN2-Q22/58 KI cells, Baf treatment), the LC3-II level result is given as “slight elevation of LC3-II”. Besides, in data set [8] (setting [10]), the “processed LC3-II and p62 levels” value is on record as “dose-wise increased levels”.
